Results on one molecule are retold here after article PMC9457533, “Study on Metronidazole Acid-Base Behavior and Speciation with Ca^2+ for Potential Applications in Natural Waters” (Molecules, 2022).

“And” between values parts separate entries of the source, which are not always exact repeats. Identical values can stand only once.

Data set [1] is described as follows: Distribution diagram of MNZ species vs pH. In kind it is physicochemical. Conditions: t = 25 °C, I = 0.15 mol L^-1, CL = 2 mmol L^-1, 4 ≤ pH ≤ 10. The procedure: (§1) The protonation constant of MNZ (L), formation constant values of Ca^2+(M)-MNZ (L), and titration parameters (analytical concentration of the reagents, standard potential E^0, junction potential) were determined by using BSTAC and STACO programs. LIANA program has provided the parameters characterizing the dependence of the protonation and formation constant values on the temperature and ionic strength. More details on software are present in ref. [59]. ^1H NMR data were processed by HypNMR software, which allows for calculating protonation and formation constant values and the individual chemical shift of species through the observed signals and assuming fast mutual exchange in the NMR time scale. UV-Vis data are processed by the HypSpec program, which allows refining of the protonation and formation constant as well as the molar absorption coefficient values (ε) of the species. The speciation diagrams and the formation percentage of the species are determined by the Hyss program.

Data set [2] in a line: UV-Vis spectrophotometric titrations: protonation constants of MNZ. In kind it is physicochemical. As to conditions: t = 25 °C; for logβ UV: I = 0.15 mol L^-1. As for the experimental part:
As widely reported in the literature, the high ability of L to absorb in the UV range has often been used to determine quantitatively and qualitatively this antibiotic in waters. Various spectrophotometric titrations on solutions containing L and M-L mixtures were performed to investigate L spectral behavior and to confirm the protonation and formation constants values as well as the speciation model obtained by potentiometry, as already shown with other systems.
The spectrophotometric titrations were performed with a Varian Cary 50 UV-Vis spectrophotometer characterized by an optical fiber with a fixed 1 cm path length. The system was interfaced to a PC by the Varian Cary WinUV software. For all titrations, a Thermo-Fisher glass electrode was also used to record simultaneously the couple of data absorbance (A) and e.m.f. (mV) vs. volume of titrant (mL), for each titration point. The analyses were carried out in a thermostated cell, in which N2 was bubbled in solution to avoid CO2 and O2.
as §1

Data set [3] can be described thus: Speciation simulation of MNZ under sea water conditions. Conditions: pH = 8.1, I = 0.7 mol L^-1, t = 25 °C. As for the experimental part:
In order to assess the relevance of the Ca^2+ complex in sea water conditions, the average concentrations of MNZ (L), Ca^2+, Mg^2+, and other divalent cations such as Cu^2+ and Zn^2+, were considered. With the use of the thermodynamic data here determined, it is possible to carry out simulations in sea water conditions. More in detail, the protonation constants of L and the stability constants of Ca^2+-L complex species were calculated by data in Table 3 at I = 0.7 mol L^−1, i.e., the mean ionic strength of sea water. For Cu^2+-L and Zn^2+-L complexes, data of formation constants determined by us and not yet published were used. […] Formation constant values of Cu^2+- and Zn^2+-L species under sea water conditions, belonging to our unpublished study, are summarized in the Supplementary Materials.
as §1

Data set [4] in a line: 1H NMR titrations: protonation constants of MNZ. The format is physicochemical. As to conditions: t = 25 °C, I = 0.15 mol L^-1. As for the experimental part:
The acid-base behavior of the ligand was also investigated by ^1H NMR. Various spectroscopic titrations were therefore carried out on solutions containing L to determine the values of the chemical shifts, and to refine the protonation constant values. The ^1H NMR spectra, shown in Figure 5 at various pH values and t = 25 °C, show four distinct signals: a singlet associated with CH3 protons, two triplets related to the protons of the two CH2, indicated as CH2a and CH2b, and a singlet of the CH proton present in the imidazole ring. An upfield of 0.3 ppm of the CH chemical shift can be observed as a consequence of the deprotonation of the imidazole group for the pH increase. A similar behavior can be observed for the CH3 in which the chemical shift is 0.2 ppm. […] Furthermore, M-L solutions were analyzed by ^1H NMR at t = 25 °C and I = 0.15 mol L^−1, using a procedure already employed for other systems. The experimental spectra were reported in the Supplementary Materials.
NMR measurements were performed by Varian 500 NMR spectrometer. The ^1H NMR spectra were recorded using 90% H2O and 10% D2O as solvent and the chemical shifts were referred to the 1,4-dioxane signal (δCHdioxane = 3.7 ppm). […] Ca^2+-L spectra were recorded at the same conditions of ionic strength, temperature, and pH range of the free ligand. […]

Data set [5] can be described thus: Dependence of Ca^2+-MNZ formation constant on ionic strength (Debye-Hückel type equation). In kind it is physicochemical. Conditions: Ca + L + H = CaLH, t = 25 °C, NaCl. From the text:
The choice to carry out the experiments at various ionic strengths made it possible to study the dependence of the values of the protonation and formation constants on the ionic strength, expressed by a Debye-Hückel type equation, reported below: (5) logβ=logβ^T − 0.51 z* I/1 + 1.5 I + CI where β^T is the protonation constant at infinite dilution, z* is the parameter that refers to the charges present in the solution corresponding to ∑z^2reagents − ∑z^2products, and C refers to the empirical parameter that depends on the stoichiometric coefficients and on the charges. Using Equation (5) and equilibrium constants at various ionic strength values, the formation constants extrapolated to I = 0 mol L^−1, together with the empirical parameter C, were obtained.
The protonation constant of MNZ (L), formation constant values of Ca^2+(M)-MNZ (L), and titration parameters (analytical concentration of the reagents, standard potential E^0, junction potential) were determined by using BSTAC and STACO programs. LIANA program has provided the parameters characterizing the dependence of the protonation and formation constant values on the temperature and ionic strength. […] The speciation diagrams and the formation percentage of the species are determined by the Hyss program.

Data set [6] can be described thus: Distribution diagram of Ca^2+-MNZ system vs pH. The format is physicochemical. As to conditions: I = 0.15 mol L^-1, CL = 2 mmol L^-1, CCa = 1 mmol L^-1, 4 ≤ pH ≤ 10. The procedure: as §1
Data set [7] is described as follows: Dependence of protonation constants on temperature (van't Hoff equation), thermodynamic parameters. In kind it is physicochemical. As to conditions: t = 298.15 K, I = 0.15 mol L^-1 NaCl. As for the experimental part: The protonation and formation constants values acquired at the three different temperatures of 15, 25, and 37 °C, listed in Table 1, were used to study their dependence on temperature, as already shown for several systems. The data obtained by the potentiometric measurements were analyzed using the following van’t Hoff equation:logβT = logβθ + ΔH^0(1/θ − 1/T) R ln 10(6) where logβT is the stability constant at a certain temperature (expressed in kelvin), while logβθ is the stability constant at t = 298.15 K, and R is the universal gas constant expressed as 8.314 J K^−1 mol^−1. Using the equation just reported, it was possible to calculate the protonation and formation enthalpies change values, together with Gibbs free energy and entropy changes.
as §1

[8] abbreviates: CL = 8·10^-10 mol L^-1, CZn = 1.5·10^-9 mol L^-1.

Consider `Cc1ncc([N+](=O)[O-])n1CCO` [MNZ, 2-Methyl-5-nitroimidazole-1-ethanol], for which the “maximum ligand fraction of the mono-protonated species” value in data set [1] is given as “over 0.9”. Besides, the “logβ UV” value is 14.20(6) in data set [2] (L + 2H = LH2) and 11.73(2) ^1 in data set [2] (L + H = LH). In addition, the “logK2 (protonation constant)” value in data set [2] (UV spectrophotometry, I = 0.15 mol L^-1 in NaCl) is 2.47. For the same molecule, the “percentage of LH species” value in data set [3] (CL = 8·10^-10 mol L^-1) is 22%. In data set [3] (CL = 8·10^-10 mol L^-1, CCa = 0.01 mol L^-1), the “percentage of CaLH species” value is recorded as 29%. Besides, the “percentage of CuL species” value in data set [3] (CL = 8·10^-10 mol L^-1, CCu = 4·10^-5 mol L^-1) was 10%. In data set [3] (setting [8]), the “percentage of ZnL species” value is on record as 4%. In data set [3] (setting [8]), the “percentage of ZnLOH species” value is 35%. The “logβ H-NMR” value in data set [4] (L + 2H = LH2) is listed as 14.13(1); in data set [4] (L + H = LH) it was 11.81(1) ^1. The “C (empirical parameter for dependence on ionic strength, Equation (5))” value in data set [5] is given as 1.0(2). In addition, the “log^Tβ (constant at infinite dilution)” value in data set [5] (extrapolated to I = 0 mol L^-1) is given as 15.0(2). Besides, the “maximum metal fraction of CaLH species” value in data set [6] (t = 25 °C) is reported as 0.4; in data set [6] (t = 37 °C) it was “over 0.1”. The TΔS in data set [7] (L + H = LH) turned out to be 14.1 kcal/mol; in data set [7] (LH + H = LH2), 0.24 kcal/mol. The results for the ΔG in data set [7] (L + H = LH) and in data set [7] (LH + H = LH2) were -15.9 kcal/mol and -3.35 kcal/mol, respectively. Moreover, the ΔH in data set [7] (L + H = LH) was -8 kJ mol^-1 and −8(7) kJ mol^-1; in data set [7] (LH + H = LH2) it was -13 kJ mol^-1 and −13(3) kJ mol^-1.
